Assay results: paper PMC8933379, “Evaluation of the absolute oral bioavailability of the anaplastic lymphoma kinase/c-ROS oncogene 1 kinase inhibitor lorlatinib in healthy participants” (Cancer Chemotherapy and Pharmacology, 2021)
Entries after “also recorded” stand apart in the source; their conditions may differ. Like-named read-outs stand apart in the source and are kept apart here.

What was measured:
[1] = set-up: method as in PMID 32441835; details: cited from earlier work; for Total drug-related radioactivity (parent plus metabolites) recovered in urine: depends on radioactivity placement on the molecule
[2] = rats; animal studies, no reference given; cited from earlier work
[3] = Safety evaluation (adverse events) in the crossover study
Description: Safety assessments were performed at screening, during the study, and at study completion, clinic discharge, or early termination. Safety assessments included physical examinations, 12‐lead ECGs, vital signs, and clinical laboratory evaluations. All adverse events (AEs) and concomitant treatments were monitored and recorded throughout the study. AEs were reported using NCI CTCAE terminology.

[4] = 100 mg single oral dose of [14C]lorlatinib, healthy participants

C[C@H]1Oc2cc(cnc2N)-c2c(nn(C)c2C#N)CN(C)C(=O)c2ccc(F)cc21 [Lorlatinib, (10R)-7-amino-12-fluoro-2,10,16-trimethyl-15-oxo-10,15,16,17-tetrahydro-2H-8,4-(metheno)pyrazolo[4,3-h][2,5,11]-benzoxadiazacyclotetradecine-3-carbonitrile]
Unchanged lorlatinib recovered in faeces [1, 4]: ~ 9% | Unchanged lorlatinib recovered in urine [1, 4]: < 1% | Total drug-related radioactivity (parent plus metabolites) recovered in urine ([1]; first of two values): 48% | Total drug-related radioactivity (parent plus metabolites) recovered in urine ([1]; second of two values): 28% | Absolute bioavailability [2]: approximately 100% | Tolerability ([3]; 50 mg IV dose and 100 mg single oral dose, healthy participants): generally well-tolerated | Number of TEAEs (treatment-emergent adverse events) ([3]; 50 mg IV, n = 11): 8 | Number of TRAEs (treatment-related adverse events) ([3]; 50 mg IV, n = 11): 6 | Number of participants who reported AEs ([3]; 50 mg IV, n = 11): 4 | Participants with AEs: Abdominal discomfort, all causality ([3]; 50 mg IV, n = 11): 0 | Participants with AEs: Contusion, TRAE ([3]; 50 mg IV, n = 11): 0 | Participants with AEs: Contusion, all causality ([3]; 50 mg IV, n = 11): 1 | Participants with AEs: Dizziness, TRAE ([3]; 50 mg IV, n = 11): 1 (1) | Participants with AEs: Dizziness, all causality ([3]; 50 mg IV, n = 11): 1 (1) | Participants with AEs: Dysuria, all causality ([3]; 50 mg IV, n = 11): 0 | Participants with AEs: Eye disorders, all causality ([3]; 50 mg IV, n = 11): 0 | Participants with AEs: Gastrointestinal disorders, all causality ([3]; 50 mg IV, n = 11): 0 | Participants with AEs: General disorders and administration side conditions, all causality ([3]; 50 mg IV, n = 11): 0 | Participants with AEs: Headache, TRAE ([3]; 50 mg IV, n = 11): 2 (2) | Participants with AEs: Headache, all causality ([3]; 50 mg IV, n = 11): 2 (2) | Participants with AEs: Injury, poisoning and procedural complications, TRAE ([3]; 50 mg IV, n = 11): 0 | Participants with AEs: Injury, poisoning and procedural complications, all causality ([3]; 50 mg IV, n = 11): 1 | Participants with AEs: Investigations, TRAE ([3]; 50 mg IV, n = 11): 1 (1) | Participants with AEs: Investigations, all causality ([3]; 50 mg IV, n = 11): 1 (1) | Participants with AEs: Mental impairment, all causality ([3]; 50 mg IV, n = 11): 0 | Participants with AEs: Nausea, all causality ([3]; 50 mg IV, n = 11): 0 | Participants with AEs: Nervous system disorders, TRAE ([3]; 50 mg IV, n = 11): 2 (2) | Participants with AEs: Nervous system disorders, all causality ([3]; 50 mg IV, n = 11): 2 (2) | Participants with AEs: Nervousness, TRAE ([3]; 50 mg IV, n = 11): 0 | Participants with AEs: Nervousness, all causality ([3]; 50 mg IV, n = 11): 1 | Participants with AEs: Paraesthesia, TRAE ([3]; 50 mg IV, n = 11): 1 (1) | Participants with AEs: Paraesthesia, all causality ([3]; 50 mg IV, n = 11): 1 (1) | Participants with AEs: Photophobia, all causality ([3]; 50 mg IV, n = 11): 0 | Participants with AEs: Psychiatric disorders, TRAE ([3]; 50 mg IV, n = 11): 0 | Participants with AEs: Psychiatric disorders, all causality ([3]; 50 mg IV, n = 11): 1 | Participants with AEs: Renal and urinary disorders, all causality ([3]; 50 mg IV, n = 11): 0 | Participants with AEs: Somnolence, all causality ([3]; 50 mg IV, n = 11): 0 | Participants with AEs: Transaminase increased, TRAE ([3]; 50 mg IV, n = 11): 1 (1) | Participants with AEs: Transaminase increased, all causality ([3]; 50 mg IV, n = 11): 1 (1) | Participants with AEs: Visual field defect, TRAE ([3]; 50 mg IV, n = 11): 1 (1) | Participants with AEs: Visual field defect, all causality ([3]; 50 mg IV, n = 11): 1 (1) | Deaths, serious AEs, severe AEs, discontinuations or dose reductions due to AEs ([3]; 100 mg oral and 50 mg IV, 11 healthy participants): No deaths, serious adverse events (AEs), or severe AEs were reported; also recorded: No deaths, serious AEs, severe AEs, permanent discontinuations, temporary discontinuations, or dose reductions due to AEs were reported | Number of TEAEs (treatment-emergent adverse events) ([3]; 100 mg oral tablets, n = 11): 12 | Number of TRAEs (treatment-related adverse events) ([3]; 100 mg oral tablets, n = 11): 9 | Participants with AEs: Abdominal discomfort, TRAE ([3]; 100 mg oral tablets, n = 11): 0 | Participants with AEs: Abdominal discomfort, all causality ([3]; 100 mg oral tablets, n = 11): 1 | Participants with AEs: Contusion, all causality ([3]; 100 mg oral tablets, n = 11): 0 | Participants with AEs: Dizziness, TRAE ([3]; 100 mg oral tablets, n = 11): 1 (1) | Participants with AEs: Dizziness, all causality ([3]; 100 mg oral tablets, n = 11): 1 (1) | Participants with AEs: Dysuria, TRAE ([3]; 100 mg oral tablets, n = 11): 1 (1) | Participants with AEs: Dysuria, all causality ([3]; 100 mg oral tablets, n = 11): 1 (1) | Participants with AEs: Eye disorders, TRAE ([3]; 100 mg oral tablets, n = 11): 1 (1) | Participants with AEs: Eye disorders, all causality ([3]; 100 mg oral tablets, n = 11): 1 (1) | Participants with AEs: Gastrointestinal disorders, TRAE ([3]; 100 mg oral tablets, n = 11): 0 | Participants with AEs: Gastrointestinal disorders, all causality ([3]; 100 mg oral tablets, n = 11): 2 | Participants with AEs: General disorders and administration side conditions, TRAE ([3]; 100 mg oral tablets, n = 11): 0 | Participants with AEs: General disorders and administration side conditions, all causality ([3]; 100 mg oral tablets, n = 11): 1 | Participants with AEs: Headache, TRAE ([3]; 100 mg oral tablets, n = 11): 2 (2) | Participants with AEs: Headache, all causality ([3]; 100 mg oral tablets, n = 11): 2 (2) | Participants with AEs: Injury, poisoning and procedural complications, all causality ([3]; 100 mg oral tablets, n = 11): 0 | Participants with AEs: Investigations, TRAE ([3]; 100 mg oral tablets, n = 11): 1 (1) | Participants with AEs: Investigations, all causality ([3]; 100 mg oral tablets, n = 11): 1 (1) | Participants with AEs: Mental impairment, TRAE ([3]; 100 mg oral tablets, n = 11): 1 (1) | Participants with AEs: Mental impairment, all causality ([3]; 100 mg oral tablets, n = 11): 1 (1) | Participants with AEs: Nausea, TRAE ([3]; 100 mg oral tablets, n = 11): 0 | Participants with AEs: Nausea, all causality ([3]; 100 mg oral tablets, n = 11): 1 | Participants with AEs: Nervous system disorders, TRAE ([3]; 100 mg oral tablets, n = 11): 3 (3) | Participants with AEs: Nervous system disorders, all causality ([3]; 100 mg oral tablets, n = 11): 3 (3) | Participants with AEs: Nervousness, all causality ([3]; 100 mg oral tablets, n = 11): 0 | Participants with AEs: Paraesthesia, TRAE ([3]; 100 mg oral tablets, n = 11): 1 (1) | Participants with AEs: Paraesthesia, all causality ([3]; 100 mg oral tablets, n = 11): 1 (1) | Participants with AEs: Photophobia, TRAE ([3]; 100 mg oral tablets, n = 11): 1 (1) | Participants with AEs: Photophobia, all causality ([3]; 100 mg oral tablets, n = 11): 1 (1) | Participants with AEs: Psychiatric disorders, all causality ([3]; 100 mg oral tablets, n = 11): 0 | Participants with AEs: Renal and urinary disorders, TRAE ([3]; 100 mg oral tablets, n = 11): 1 (1) | Participants with AEs: Renal and urinary disorders, all causality ([3]; 100 mg oral tablets, n = 11): 1 (1) | Participants with AEs: Somnolence, TRAE ([3]; 100 mg oral tablets, n = 11): 1 (1) | Participants with AEs: Somnolence, all causality ([3]; 100 mg oral tablets, n = 11): 1 (1) | Participants with AEs: Transaminase increased, TRAE ([3]; 100 mg oral tablets, n = 11): 1 (1) | Participants with AEs: Transaminase increased, all causality ([3]; 100 mg oral tablets, n = 11): 1 (1) | Participants with AEs: Visual field defect, all causality ([3]; 100 mg oral tablets, n = 11): 0 | Number of participants who reported AEs ([3]; 100 mg oral, n = 11): 4
